From patent US20130203602A1, “SUPPORTED BIOLOGICALLY ACTIVE COMPOUNDS” (Danmarks Tekniske Universitet, priority 2010, published 2013)
Marks after values point to notes of the source that are not given here.

Assay: Thermal stability determination by thermogravimetric analysis (TGA)
Type: physicochemical
Conditions: for temperature at which it starts to decompose: heated neat; for Inflection point / T5% onset temperature: not supported/neat; for Inflection point: TGA 25-800° C., 5° C./min, under air; for T5% onset temperature: TGA 5° C./min, under nitrogen

Row | Compound | Inflection point [°C] | further results
1 | Nc1nc2c(ncn2COCCO)c(=O)[nH]1 [Acyclovir, reference compound] | 249 | temperature at which it starts to decompose: around 249 °C
2 | CC(C)Cc1ccc(C(C)C(=O)O)cc1 (stereo not shown) [Ibuprofene, reference compound] | – | temperature at which it starts to decompose: around 150 °C; T5% onset temperature: 155* ° C.
3 | CC(C)Cc1ccc(C(C)C(=O)O)cc1 (stereo not shown) [Tetrabutylphosphonium Ibuprofenate [7]] | – | T5% onset temperature: 236* ° C.
4 | O=C(O)CNCP(=O)(O)O [Tetraethylammonium Glyphosate [6], Tetraethylammonium Glyphosate] | 150 | –
5 | Nc1nc2c(ncn2COCCO)c(=O)[nH]1 [Trimethylhexadecylammonium acyclovir [3]] [Trimethylhexadecylammonium Aciclovir] | 189 | –
6 | CC(C)Cc1ccc(C(C)C(=O)O)cc1.CCN(CC)CC(=O)Nc1c(C)cccc1C [[8], Lidocainium Ibuprofenate] | – | T5%onset (neat compound, given with the synthesis example): 177 °C
7 | Itraconazolium Dioctylsulfosuccinate [Itraconazolium Dioctylsulfosuccinate [5]] | 257 | –
8 | Tributylmethylammonium Acyclovir [Tributylmethylammonium Acyclovir [2]] | 203 | –
